We go through 2 compounds from patent US12156918B2, “Neuroendocrine cancer targeted therapy” (THE UAB RESEARCH FOUNDATION, priority 2018, dated 2024).

Where a SMILES comes first, the peptide text is derived from it. [ ]: non-standard residue; d: D form. The star is where a group is joined. Dolaproine = CO[C@@H]([C@@H]1CCCN1)[C@@H](C)C(=O)O; Dil = CC[C@H](C)[C@H](NC)[C@@H](CC(=O)O)OC; X1 = C[C@@H](N*)[C@@H](O)c1ccccc1; NMeV = CN[C@H](C(=O)O)C(C)C

For one assay, the system named is human CD8+ T cells. The assay is described as follows: Flow cytometry of cytokine expression in CD3/CD28 stimulated T cells. The format is cell-based. As to conditions: 2 days incubation (100 nM elsewhere in the source). The method, then: Therefore, our novel anti-SSTR2 mAb has great potential as a drug delivery vehicle in the form of ADC. […] Using flow cytometry, we analyze the effect of our SSTR2 mAb on the expression of cytokines in the CD3/CD28 stimulated human CD8+ T cells after incubating with mAb for 2 days.
Moreover, the possible effect of the disclosed anti-SSTR2 mAb on cytokine production in CD8^+ T cells was also tested. Post CD3/CD28 stimulation, human CD8^+ T cells were incubated with either 100 nM of SST analog (Octreotide) or 100 nM of the anti-SSTR2 mAb for 2 days. After incubation, flow cytometry was performed to analyze the expression of IL-2 and IFN-γ.

The next assay concerns microtubule. The assay is described as follows: Microtubule de-polymerization imaging. Type of assay: cell-based, human. Particulars: BON cell line.
A further assay deals with BON-1 cells. The assay is described as follows: In vitro anti-cancer toxicity (IC50), Luminescent Cell Viability Assay. As to conditions: 3-day incubation. The format is cell-based, human. The method, then:
In vitro anti-cancer toxicity (IC50). BON cell line was utilized to compare the toxicity of ADC. 75 uL of culture media containing cells (viability >95%) with a density of 5×10^4 cells/mL was added in each well of 96-well plate. ADC or MMAE solution was sterilized by 0.2 μm filter and diluted to different concentrations with complete medium. After 4-hr incubation in regular cell culture incubator, 75 μL of ADC or MMAE with gradient concentrations were mixed with cells in the 96-well plate. The well plate was covered by another 96-well plate filled with PBS to prevent medium evaporation during treatment period. After 3-day incubation, the toxicity result was generated through Luminescent Cell Viability Assay (Promega, Madison, […]).

`C[C@@H](O)[C@@H]1NC(=O)[C@H](CCCCN)NC(=O)[C@@H](Cc2c[nH]c3ccccc23)NC(=O)[C@H](Cc2ccccc2)NC(=O)[C@@H](NC(=O)[C@H](N)Cc2ccccc2)CSSC[C@@H](C(=O)N[C@H](CO)[C@@H](C)O)NC1=O` [Octreotide]: in the assay with human CD8+ T cells, the “increase of IFN-γ expression” value is 2.2 folds and the “increase of IL-2 expression” value came to 1.6 folds.

Usually IC50 stands for the concentration at which inhibition is half-maximal. Consider `CC[C@H](C)[C@@H]([C@@H](CC(=O)N1CCC[C@H]1[C@H](OC)[C@@H](C)C(=O)N[C@H](C)[C@@H](O)c1ccccc1)OC)N(C)C(=O)[C@@H](NC(=O)[C@@H](NC)C(C)C)C(C)C` [MMAE, monomethyl auristatin E] (H-[NMeV]V[Dil][Dolaproine]-X1), for which the “mechanism of NET cell proliferation inhibition” value in the assay on microtubule is on record as “microtubule de-polymerization”. This compound showed an IC50 in the assay with BON-1 cells of 2 nM.
